The target of data set [1] is T1, Interleukin-1 receptor-associated kinase 4 (Homo sapiens, UniProt Q9NWZ3).
T1 sequence (Q9NWZ3 whole entry): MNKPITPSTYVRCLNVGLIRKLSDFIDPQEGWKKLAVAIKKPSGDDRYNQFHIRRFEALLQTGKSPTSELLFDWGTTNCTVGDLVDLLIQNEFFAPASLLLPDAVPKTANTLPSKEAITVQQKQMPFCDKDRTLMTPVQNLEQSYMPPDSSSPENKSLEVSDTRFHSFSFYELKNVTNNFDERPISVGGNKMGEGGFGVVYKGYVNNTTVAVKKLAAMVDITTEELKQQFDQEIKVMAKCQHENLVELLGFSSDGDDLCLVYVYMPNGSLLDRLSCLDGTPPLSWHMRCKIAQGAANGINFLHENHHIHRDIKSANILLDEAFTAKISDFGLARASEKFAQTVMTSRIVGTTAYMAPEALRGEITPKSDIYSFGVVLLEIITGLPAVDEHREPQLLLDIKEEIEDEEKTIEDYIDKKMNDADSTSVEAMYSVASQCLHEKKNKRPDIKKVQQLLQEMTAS
In words: Inhibition of human IRAK4 using biotinylated FGLARFSRFAGSSPSQSSMVARTQTVRGT peptide as substrate incubated for 1 hr in presence of ATP by ELISA assay. A general note: An ELISA detects its analyte on a solid surface through an enzyme-linked reagent.

The target in a further data set is CYP2C9 (Homo sapiens, UniProt P11712). Put plainly: Reversible inhibition of CYP2C9 in human liver microsomes assessed as residual activity at 5 uM using diclofenac as substrate preincubated for 30 mins followed by substrate addition measured after 20 mins by LC-MS/MS analysis relative to control. Type of data set: ADME, Microsome. Particulars: probe diclofenac, time 50 min, read-out: Activity. (Liver microsomes are vesicles of endoplasmic reticulum, rich in cytochrome P450 enzymes.)

Data set [2] deals with T2, CYP3A4 (Homo sapiens, UniProt P08684). Put plainly: Reversible inhibition of CYP3A4 in human liver microsomes assessed as residual activity at 5 uM using midazolam as substrate preincubated for 30 mins followed by substrate addition measured after 20 mins by LC-MS/MS analysis relative to control. Particulars: probe midazolam, time 50 min, read-out: Activity. Type of data set: ADME, Microsome.

A further data set addresses T3, CYP2C8 (Homo sapiens, UniProt P10632).
T3 sequence (P10632 whole entry): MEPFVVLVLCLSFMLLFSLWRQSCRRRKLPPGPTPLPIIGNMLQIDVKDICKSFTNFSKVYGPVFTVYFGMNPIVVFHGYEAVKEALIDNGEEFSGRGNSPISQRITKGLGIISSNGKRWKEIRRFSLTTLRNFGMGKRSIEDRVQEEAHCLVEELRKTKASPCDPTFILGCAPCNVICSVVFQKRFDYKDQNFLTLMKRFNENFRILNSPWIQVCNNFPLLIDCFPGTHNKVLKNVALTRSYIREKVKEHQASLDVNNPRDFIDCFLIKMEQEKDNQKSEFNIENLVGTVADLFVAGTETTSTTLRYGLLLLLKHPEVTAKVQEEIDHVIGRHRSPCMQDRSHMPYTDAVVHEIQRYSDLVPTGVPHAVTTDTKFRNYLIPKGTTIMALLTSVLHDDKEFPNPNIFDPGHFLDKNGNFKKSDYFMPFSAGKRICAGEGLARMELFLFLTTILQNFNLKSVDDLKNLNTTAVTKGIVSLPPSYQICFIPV
Put plainly: Reversible inhibition of CYP2C8 in human liver microsomes assessed as residual activity at 5 uM using amodiaquine as substrate preincubated for 30 mins followed by substrate addition measured after 20 mins by LC-MS/MS analysis relative to control. Type of data set: ADME, Microsome. Particulars: probe amodiaquine, time 50 min, read-out: Activity.

In data set [3] the target is T2, CYP3A4. In words: Time dependent inhibition of CYP3A4 in human liver microsomes assessed as residual activity at 5 uM using midazolam as substrate preincubated for 30 mins followed by substrate addition measured after 20 mins by LC-MS/MS analysis relative to control. Type of data set: ADME, Microsome. The settings on record: probe midazolam, read-out: Activity.
For data set [4], the target named is T4, CYP1A2 (Homo sapiens, UniProt P05177).
T4 sequence (P05177 whole entry): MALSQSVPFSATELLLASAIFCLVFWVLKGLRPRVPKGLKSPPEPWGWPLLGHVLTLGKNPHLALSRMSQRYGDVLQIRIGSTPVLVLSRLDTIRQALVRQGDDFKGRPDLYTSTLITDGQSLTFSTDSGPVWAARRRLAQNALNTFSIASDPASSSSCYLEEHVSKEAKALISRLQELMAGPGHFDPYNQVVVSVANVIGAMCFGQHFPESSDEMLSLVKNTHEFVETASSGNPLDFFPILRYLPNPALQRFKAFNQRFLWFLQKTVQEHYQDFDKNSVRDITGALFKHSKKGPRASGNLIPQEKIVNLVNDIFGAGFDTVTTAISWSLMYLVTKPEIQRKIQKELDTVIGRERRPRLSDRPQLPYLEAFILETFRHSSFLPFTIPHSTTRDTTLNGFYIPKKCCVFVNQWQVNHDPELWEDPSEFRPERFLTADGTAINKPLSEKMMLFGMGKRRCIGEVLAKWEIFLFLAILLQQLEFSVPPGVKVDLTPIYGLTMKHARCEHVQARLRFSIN
In words: Reversible inhibition of CYP1A2 in human liver microsomes assessed as residual activity at 5 uM using phenacetin as substrate preincubated for 30 mins followed by substrate addition measured after 20 mins by LC-MS/MS analysis relative to control. Type of data set: ADME, Microsome. Particulars: probe phenacetin, time 50 min, read-out: Activity.

Data set [5] relates to CYP1A2. Put plainly: Induction of CYP1A2 mRNA expression in human HepaRG cells assessed as fold change at 5 uM incubated for 48 hrs. Type of data set: ADME, cell-based. The settings on record: read-out: FC.
Data set [6] concerns CYP1A2. Put plainly: Induction of CYP1A2 mRNA expression in human HepaRG cells assessed as fold change at 15 uM incubated for 48 hrs. Type of data set: ADME, cell-based. Particulars: read-out: FC.
Data set [7] concerns CYP1A2. Put plainly: Induction of CYP1A2 mRNA expression in human HepaRG cells assessed as fold change at 30 uM incubated for 48 hrs. Type of data set: ADME, cell-based. Particulars: read-out: FC.
Data set [8] deals with CYP1A2. Put plainly: Induction of CYP1A2 mRNA expression in human HepaRG cells assessed as fold change at 7.5 uM incubated for 48 hrs. Type of data set: ADME, cell-based. The settings on record: read-out: FC.
A short description of data set [9]: Inhibition of IL-1beta stimulated IL-6 production in human A549 cells pre-incubated for 1 hr followed by overnight stimulation by ELISA analysis. Type of data set: functional, cell-based.
Data set [10] deals with CYP1A2. In words: Induction of CYP1A2 mRNA expression in human HepaRG cells assessed as fold change at 10 uM incubated for 48 hrs. Type of data set: ADME, cell-based. Particulars: read-out: FC.

Each structure is given as a SMILES string.

Sequence of CYP2C9 (P11712 whole entry): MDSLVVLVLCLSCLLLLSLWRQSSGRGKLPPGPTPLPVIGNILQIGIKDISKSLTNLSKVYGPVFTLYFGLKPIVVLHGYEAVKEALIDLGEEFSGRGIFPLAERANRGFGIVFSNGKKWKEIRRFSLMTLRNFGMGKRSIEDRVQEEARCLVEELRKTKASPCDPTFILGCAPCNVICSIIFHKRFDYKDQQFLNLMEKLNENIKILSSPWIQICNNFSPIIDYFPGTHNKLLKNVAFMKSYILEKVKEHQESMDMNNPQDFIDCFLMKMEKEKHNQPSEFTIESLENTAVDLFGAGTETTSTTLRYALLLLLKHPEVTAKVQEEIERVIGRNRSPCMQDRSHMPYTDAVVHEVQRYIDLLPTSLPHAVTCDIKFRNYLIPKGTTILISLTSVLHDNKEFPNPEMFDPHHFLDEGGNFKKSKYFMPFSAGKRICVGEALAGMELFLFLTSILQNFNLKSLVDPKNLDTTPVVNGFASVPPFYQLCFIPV
T2 sequence (P08684 whole entry): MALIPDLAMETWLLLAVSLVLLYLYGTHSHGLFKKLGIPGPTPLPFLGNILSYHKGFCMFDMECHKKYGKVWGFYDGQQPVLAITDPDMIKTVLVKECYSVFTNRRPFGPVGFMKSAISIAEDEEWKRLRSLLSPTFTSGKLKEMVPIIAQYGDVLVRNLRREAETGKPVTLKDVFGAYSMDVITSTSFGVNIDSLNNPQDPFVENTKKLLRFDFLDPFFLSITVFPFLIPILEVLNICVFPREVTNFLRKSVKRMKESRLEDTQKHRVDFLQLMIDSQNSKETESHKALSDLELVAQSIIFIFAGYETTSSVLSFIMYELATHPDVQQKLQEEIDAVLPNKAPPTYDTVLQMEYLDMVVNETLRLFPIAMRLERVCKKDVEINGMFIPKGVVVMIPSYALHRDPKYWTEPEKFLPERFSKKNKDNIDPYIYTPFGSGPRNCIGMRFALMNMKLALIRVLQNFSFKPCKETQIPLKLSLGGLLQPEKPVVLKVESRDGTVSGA

Broadly, the IC50 is the concentration that inhibits the measured activity by half. On to `CCc1cc(-c2nc(C(=O)Nc3cn(C4CCOCC4)nc3C(N)=O)co2)ccn1`, for which the IC50 in [1] stood at 14 nM.
Same read-out and setting: for `NC(=O)c1nn(C2CCOCC2)cc1NC(=O)c1coc(-c2ccc(F)cc2)n1` the value was 26 nM; for `Cc1cc(-n2ccc(C(=O)Nc3cn(C4CCOCC4)nc3C(N)=O)n2)ccn1`, 24 nM.
Consider `CCn1cc(NC(=O)c2coc(-c3ccncc3)n2)c(C(N)=O)n1`, for which the activity at 20 min, 5 µM was determined as 59% on CYP2C9; 70% on CYP3A4 [2]; 103% at CYP2C8; 89% at CYP3A4 [3]; 6% at CYP1A2 [4].
As to `CCCCn1cc(NC(=O)c2coc(-c3ccnc(C)c3)n2)c(C(N)=O)n1`, the fold induction at 48 h, 5 µM in the data set on CYP1A2 [5] was determined as 8.9. Also, in data set [1], the IC50 was 25 nM.
For `NC(=O)c1nn(C2CCOCC2)cc1NC(=O)c1coc(-c2ccncc2F)n1`, in data set [1], the IC50 turned out to be 82 nM.
Turning to `CCn1cc(NC(=O)c2coc(-c3ccnc(C)c3)n2)c(C(N)=O)n1`, the activity at 20 min, 5 µM on CYP2C9 is 98%; at CYP3A4 [2], 100%; on CYP2C8, 103%; on CYP3A4 [3] it was 108%; on CYP1A2 [4], 47%. Besides, in the data set on CYP1A2 [5], the fold induction at 48 h, 5 µM was found to be 16. In addition, the IC50 in data set [1] came out at 16 nM.
As for `Cc1cc(-c2nc(C(=O)Nc3cn(CC(C)C)nc3C(N)=O)co2)ccn1`, in data set [1], the IC50 came to 48 nM. Besides, in the data set on CYP1A2 [6], the fold induction at 48 h, 15 µM was 4.
For `Cc1cc(-c2nc(C(=O)Nc3cn(CC4CCOC4)nc3C(N)=O)co2)ccn1` (centres undefined) the same measures were 34 nM and 4.5.
For `Cc1cc(-c2nc(C(=O)Nc3cn(C4CCOC4)nc3C(N)=O)co2)ccn1` (centres undefined), the IC50 in data set [1] amounted to 30 nM. Also, the fold induction at 48 h, 30 µM in the data set on CYP1A2 [7] turned out to be 10.
`Cc1cc(-c2ccc(C(=O)Nc3cn(C4CCOCC4)nc3C(N)=O)o2)ccn1`: the IC50 in data set [1] turned out to be 13 nM.
Take `Cc1cc(-c2nc(C(=O)Nc3cn(C)nc3C(N)=O)co2)ccn1`: the IC50 in [1] was determined as 16 nM. Moreover, in the data set on CYP1A2 [8], the fold induction at 48 h, 7.5 µM was 21.
Take `Cc1cc(-c2nc(C(=O)Nc3c[nH]nc3C(N)=O)co2)ccn1`: the IC50 in data set [1] amounted to 120 nM.
With `NC(=O)c1nn(C2CCOCC2)cc1NC(=O)c1coc(-c2ccnc(CO)c2)n1`, the IC50 in data set [1] came out at 52 nM.
In the case of `Cc1cc(-c2nc(C(=O)Nc3cn(C4CCS(=O)(=O)CC4)nc3C(N)=O)co2)ccn1`, half-maximal inhibition in data set [9] (IC50) required 1600 nM. Further, in the data set with CYP1A2 [7], the fold induction at 48 h, 30 µM is 3.5.
Consider `Cn1cc(-c2nc(C(=O)Nc3cn(C4CCOCC4)nc3C(N)=O)co2)ccc1=O`, for which the IC50 in data set [1] came to 32 nM.
For `CCn1cc(NC(=O)c2csc(-c3ccncc3)n2)c(C(N)=O)n1`, the activity at 20 min, 5 µM on CYP2C9 turned out to be 56%; at CYP3A4 [2], 74%; on CYP2C8, 70%; at CYP3A4 [3], 78%; at CYP1A2 [4], 4%. The IC50 in [1] was determined as 20 nM.
For `Cc1cc(-c2ncc(C(=O)Nc3cn(C4CCOCC4)nc3C(N)=O)o2)ccn1`, the IC50 in data set [1] stood at 80 nM.
The same measure, in the same setting: for `NC(=O)c1nn(C2CCOCC2)cc1NC(=O)c1coc(-c2ccnc(C3CC3)c2)n1` the value was 67 nM.
On to `COCCn1cc(NC(=O)c2coc(-c3ccnc(C)c3)n2)c(C(N)=O)n1`, for which, in the data set on CYP1A2 [10], the fold induction at 48 h, 10 µM stood at 15. Further, the IC50 in [1] amounted to 18 nM.
`CC(=O)N1CCC(n2cc(NC(=O)c3coc(-c4ccnc(C)c4)n3)c(C(N)=O)n2)CC1`: the IC50 in [1] came out at 17 nM; in [9], 460 nM. For the same molecule, the fold induction at 48 h, 15 µM in the data set on CYP1A2 [6] worked out at 3.2.
With `Cc1cc(-c2nc(C(=O)Nc3cn(CC4(C)COC4)nc3C(N)=O)co2)ccn1`, the IC50 in data set [1] was 150 nM.
As for `Cc1cc(-c2nc(C(=O)Nc3cn(C4CCN(C)CC4)nc3C(N)=O)co2)ccn1`, the IC50 in data set [1] amounted to 18 nM; in [9], 450 nM. The fold induction at 48 h, 15 µM with CYP1A2 [6] is 3.6.

For the origin of these results see ChEMBL document CHEMBL5257151, “Design, synthesis, and pharmacological evaluation of N-(3-carbamoyl-1H-pyrazol-4-yl)-1,3-oxazole-4-carboxamide derivatives as interleukin-1 receptor-associated kinase 4 inhibitors with reduced potential for cytochrome P450 1A2 induction” (Bioorg Med Chem, 2023).
